# Measured values taken from PMC8145535, “New Acyl Derivatives of 3-Aminofurazanes and Their Antiplasmodial Activities” (Pharmaceuticals, 2021).
# Legend:
# [1] = test system: P. falciparum NF54; assay: In vitro 3H-hypoxanthine incorporation assay, erythrocytic stages, NF54 strain; format: cell-based, Plasmodium falciparum; conditions: Plasmodium falciparum, NF54, chloroquine-sensitive strain; average of four determinations; read-out: P.f. NF54 IC50
# Method: (§1) Chloroquine (Sigma C6628) was used as standard. […] Serial drug dilutions of 11 3-fold dilution steps covering a range from 100 to 0.002 μg/mL were prepared. The 96-well plates were incubated in a humidified atmosphere at 37 °C; 4% CO2, 3% O2, 93% N2. […] The plates were incubated for a further 24 h under the same conditions. The plates were then harvested with a Betaplate cell harvester (Wallac, Zurich, Switzerland). The red blood cells were transferred onto a glass fiber filter and washed with distilled water. The dried filters were inserted into a plastic foil with 10 mL of scintillation fluid and counted in a Betaplate liquid scintillation counter (Wallac, Zurich, Switzerland).
# [2] = test system: P. falciparum K1; assay: In vitro 3H-hypoxanthine incorporation assay, erythrocytic stages, K1 strain; format: cell-based; conditions: Plasmodium falciparum, K1; strain resistant to chloroquine and pyrimethamine; average of four determinations; read-out: P.f. K1 IC50
# Method: as §1
# [3] = in vitro; conditions: rat
# Method: Serial drug dilutions of 11 3-fold dilution steps covering a range from 100 to 0.002 μg/mL were prepared. After 70 h of incubation, the plates were inspected under an inverted microscope to assure the growth of the controls and sterile conditions. […] Then, the plates were read with a Spectramax Gemini XS microplate fluorometer (Molecular Devices Cooperation, Sunnyvale, CA, USA) using an excitation wavelength of 536 nm and an emission wavelength of 588 nm. […] Podophyllotoxin (Sigma P4405) was used as control.
# [4] = Parallel artificial membrane permeability assay (PAMPA); format: in vitro ADME; conditions: pH 7.4, PAMPA, pH 7.4, 200 µM in PBS, room temperature, read-out: Pe (effective permeability)
# Method: The PAMPA was performed using a 96-well precoated Corning Gentest PAMPA plate at a pH of 7.4. The PAMPA plate system consists of a donor plate and an acceptor plate. When both plates are coupled, each well is divided into two chambers that are separated by a lipid–oil–lipid trilayer constructed in a porous filter. Stock solutions (10 mM) of each compound were prepared in DMSO and then further diluted to a concentration of 200 µM in phosphate-buffered saline (PBS) at pH 7.4. The compound dissolved in PBS was then added to the donor plate and pure PBS was added to the acceptor plate. Four replicates of each compound and negative control (PBS) were transferred into different wells of the donor plate. Both plates were coupled and left at room temperature for 5 h. Then, the plates were separated, and the solutions of each donor well and acceptor well were transferred to 96-well UV-Star Microplates (Greiner Bio-One). The UV absorbance of compounds in donor wells and acceptor wells were analyzed by a SpectraMax M3 UV plate reader (Molecular Devices). The concentrations were received from a calibration curve for each substance. The plates were analyzed at a wavelength where the R^2 value of the calibration curve was higher than 0.99 [34]. The effective permeability (Pe) was calculated as shown in the following Equations (1)–(3):(1) Penm/s=10^7∗−ln1−cAt/cequ/S∗1/VD+1/VA∗ t where:
# cequ—equilibrium concentration. (2) cequ=cDt ∗VD+cAt ∗VA/VD+VA where:
# Recovery of compounds from donor and acceptor wells (mass retention) was calculated as shown in the equation below. Data were only accepted when recovery exceeded 70%.
# [5] = test system: multiresistant strain K1 of Plasmodium falciparum; parameters: method as in PMID 27467575; conditions: MMV Malaria Box; cited from earlier work
# [6] = test system: multiresistant strain Dd2 of Plasmodium falciparum; parameters: method as in PMID 27467575; conditions: MMV Malaria Box; cited from earlier work
# [7] = test system: P. berghei liver schizonts; parameters: method as in PMID 27275010, PMID 16242190; conditions: P. berghei assay; cited from earlier work
# [8] = test system: early gametocyte stages; parameters: method as in PMID 24060871, PMID 23234555, PMID 26787698, PMID 26749441, PMID 17521751; conditions: cited from earlier work
# [9] = test system: Na+-efflux pump PfATP4; parameters: method as in PMID 25145582, PMID 33023071, PMID 19956997, PMID 25715757; conditions: possible target; cited from earlier work
compound,measurement,setting,value
"CCOc1ccc(-c2nonc2NC(=O)c2cccc(C)c2)cc1OCC [Compound 1, N-(4-(3,4-Diethoxyphenyl)-1,2,5-oxadiazol-3-yl)-3-methylbenzamide]",IC50,[1],0.011 µM
same,IC50,[2],0.011 µM
same,IC50 at 72 h,[3],159 µM
same,"Papp at 5 h, 200 µM",[4],2.77 ×10⁻⁶ cm/s
same,antiplasmodial activity against multiresistant strain K1,[5],shows antiplasmodial activity
same,antiplasmodial activity against multiresistant strain Dd2,[6],shows antiplasmodial activity
same,activity against liver schizonts,[7],activity against liver schizonts
same,activity against early gametocyte stages,[8],working against early gametocyte stages
same,inhibition of PfATP4,[9],likely to inhibit
